The text below walks through data of patent US20160128980A1, “METHODS OF TREATING CKD USING PREDICTORS OF FLUID RETENTION” (AbbVie Inc., priority 2014, published 2016).

Where two headings read alike, the source gives them in different places.

Data set [1] deals with subjects with type 1 diabetes and proteinuria not receiving RAS inhibitors. The data set is described as follows: Study M96-499, Phase 2 cross-over study of atrasentan. The class given is in vivo, human. The source says:
The most commonly experienced treatment-emergent adverse events in the atrasentan group were peripheral edema (64%), pulmonary edema (18%), rhinitis (36%) and headache (18%), whereas in the placebo group there was no peripheral edema, but there were reports of rhinitis (11%) and headache (56%).

Data set [2] relates to subjects with type 2 diabetes and albuminuria on stable doses of RAS inhibitors. The data set is described as follows: Study M10-815, Phase 2a placebo controlled study of atrasentan. The settings on record: for reduction in the mean UACR from baseline: placebo 11%; for subjects with mild to moderate peripheral edema: placebo 9%. It counts as in vivo, human. How it is done: In a Phase 2a double-blind, randomized, placebo controlled study (referred to herein as M10-815), subjects with type 2 diabetes and albuminuria who were on stable doses of RAS inhibitors were administered atrasentan HCl at 0.25, 0.75 or 1.75 mg QD for 8 weeks.

Data set [3] has as its system patients with type 2 diabetic nephropathy. The data set can be described thus: Two Phase 2b 12 week placebo-controlled studies of atrasentan in residual albuminuria. It counts as in vivo, human. The settings on record: for Linear regression coefficient, hemoglobin response: hemoglobin change after two weeks; for Linear regression coefficient, weight response: weight change after two weeks. How it is done:
Two Phase 2b, multicenter, prospective, randomized, double-blinded, placebo-controlled, 12 week studies were conducted to evaluate the efficacy and safety of atrasentan compared to placebo in reducing residual albuminuria. Atrasentan was studied at doses of 0.75 mg QD and 1.25 mg QD. The study methodologies were the identical, but for the location. (NCT01356849 in U.S., Canada, and Taiwan; NCT10424319 in Japan). Additional clinical details can be found in Kohan, D E, et al., “Predictors of Atrasentan-Associated Fluid Retention and Change in Albuminuria in Patients with Diabetic Nephropathy,” Clin J Am Soc Nephrol, September 2015, 10:1568-1574, which is hereby incorporated by reference in its entirety. Observations in body weight changes and hemoglobin changes may be used as surrogate markers for changes in fluid retention. Demographic parameters were similar between the placebo and atrasentan 0.75 and 1.25 mg/d arms (Table 1). The following abbreviations are used within the table: BNP=B-type natriuretic peptide; DBP=diastolic blood pressure; eGFR=estimated glomerular filtration rate; HbA1c=glycated hemoglobin; RAS=renin-angiotensin system; SBP=systolic blood pressure; UACR=urinary albumin to creatinine ratio. Table 1 is reproduced in part from de Zeeuw D, et al., The endothelin antagonist atrasentan lowers residual albuminuria in patients with type 2 diabetic nephropathy. J Am Soc Nephrol 25: 1083-1093, 2014, which is hereby incorporated by reference in its entirety. Values within Table 1 are mean±standard deviation unless stated otherwise. The abbreviations used in Table 3 include BP=blood pressure; eGFR=estimated glomerular filtration rate; HbA1c=glycated hemoglobin; HOMA=homeostatic model assessment. The following covariates were included in the initial backward selection model: treatment assignment, age, gender, body weight, Hb, eGFR, albuminuria, systolic blood pressure (BP), eGFR, log transformed homeostatic metabolic assessment (HOMA) product, log-transformed B-type natriuretic peptide (BNP), thiazide and loop-diuretic use. Systolic blood pressure and atrasentan dose were not included in the final logistic regression models for body weight and hemoglobin, respectively.

Data set [4] relates to individuals with a systolic blood pressure above 140 mmHg receiving at least three blood-pressure-lowering drugs. The conditions noted are these: cited from earlier work.
In data set [5] the test system is CHF. The settings on record: at higher doses; cited from earlier work.
For data set [6] the following is noted: cited from earlier work.
The test system of data set [7] is participants with type 2 diabetes and overt diabetic nephropathy. The conditions noted are these: cited from earlier work; for median decrease of UACR: median follow-up 4 months, placebo 9.7%; for discontinuation of trial medications due to adverse events: placebo 1.5%; for deaths: placebo 12.
The test system of data set [8] is congestive heart failure (CHF). The settings on record: within the first 4-8 weeks; thought to be a consequence of fluid retention; cited from earlier work.
For data set [9] the following is noted: 1-10 mg/day; cited from earlier work.
Data set [10] concerns patients with acute CHF. The conditions noted are these: intravenous, doses greater than 1 mg/hr; cited from earlier work.
Setting [11] is: 0.75 mg/day vs. placebo, after two weeks.
The mark [12] stands for this setting: 0.75 mg/day, Recovery (30 days).
The mark [13] stands for this setting: 1.25 mg/day vs. placebo, after two weeks.
The mark [14] stands for this setting: 1.25 mg/day, Recovery (30 days).
Where [15] appears, read: after 14 weeks, 50, 100 or 300 mg once daily, non-dose-dependent.

On to `CCCCN(CCCC)C(=O)CN1C[C@H](c2ccc3c(c2)OCO3)[C@@H](C(=O)O)[C@@H]1c1ccc(OC)cc1` [Atrasentan, (2R,3R,4S)-4-(1,3-benzodioxol-5-yl)-1-[2-(dibutylamino)-2-oxoethyl]-2-(4-methoxyphenyl)pyrrolidine-3-carboxylic acid], for which, in data set [1] (5 mg QD), the “mean arterial blood pressure (BP)” value is listed as “reduced”. For the same molecule, in data set [1] (5 mg QD), the “pulmonary edema, treatment-emergent adverse event” value is on record as 18%. The “peripheral edema, treatment-emergent adverse event” value in data set [1] (5 mg QD, none in placebo) was 64%. In addition, the “rhinitis, treatment-emergent adverse event” value in data set [1] (5 mg QD, placebo 11%) came out at 36%. The “headache, treatment-emergent adverse event” value in [1] (5 mg QD, placebo 56%) was 18%. Besides, the “reduction in urinary albumin excretion” value in data set [1] (5 mg daily (QD)) came to 65%. For the same molecule, the “reduction in the mean UACR from baseline” value in data set [2] (0.25 mg QD for 8 weeks, non-significant, P=0.291) is reported as 21%; in data set [2] (0.75 mg QD for 8 weeks, 1-sided P=0.023) it was 42%; in data set [2] (1.75 mg QD for 8 weeks, 1-sided P=0.073), 35%. Also, the results for the “subjects with mild to moderate peripheral edema” value in data set [2] (0.25 mg QD), in data set [2] (0.75 mg QD) and in data set [2] (1.75 mg QD) were 14%, 18% and 46%, respectively. Besides, in data set [3] (setting [11]), the “Logistic regression association with ≧1.3 g/dl fall in Hb” value was “no significant association”. Also, the “Logistic regression odds ratio (95% CI), ≧2 kg weight gain” value in [3] (setting [11]) is 3.0 (1.0-8.5); in data set [3] (setting [13]), 6.6 (2.3-18.6). In addition, the “Linear regression coefficient, hemoglobin response” value in data set [3] (0.75 mg/day vs. placebo) is recorded as −0.7; in data set [3] (1.25 mg/day vs. placebo), −1.0. The “Linear regression coefficient, weight response” value in [3] (0.75 mg/day vs. placebo) is recorded as 0.8; in data set [3] (1.25 mg/day vs. placebo), 1.3. The “BNP, median” value is 33.0 pg/mL in [3] (0.75 mg/day, Baseline); 33.1 pg/mL in data set [3] (0.75 mg/day, Week 12); 33.5 pg/mL in data set [3] (1.25 mg/day, Baseline); 37.0 pg/mL in data set [3] (1.25 mg/day, Week 12). The “Hemoglobin, Mean (SD)” value in data set [3] (0.75 mg/day, Baseline) is 12.9 (1.5) g/dL; in data set [3] (setting [12]), 12.4 (1.5) g/dL; in data set [3] (0.75 mg/day, Week 2) it was 12.0 (1.5) g/dL; in [3] (0.75 mg/day, Week 12), 11.8 (1.6) g/dL; in data set [3] (1.25 mg/day, Baseline), 12.9 (1.8) g/dL; in [3] (setting [14]), 12.5 (1.9) g/dL. The “Hemoglobin, Mean (SD)” value in [3] (1.25 mg/day, Week 2) is reported as 11.8 (1.8) g/dL; in data set [3] (1.25 mg/day, Week 12) it was 11.8 (1.8) g/dL. In addition, the “UACR, median” value in [3] (0.75 mg/day, Baseline) turned out to be 878 mg/g; in [3] (setting [12]) it was 1051 mg/g; in data set [3] (0.75 mg/day, Week 2) it was 573 mg/g; in data set [3] (0.75 mg/day, Week 6), 636 mg/g; in data set [3] (0.75 mg/day, Week 12) it was 521 mg/g; in [3] (1.25 mg/day, Baseline) it was 826 mg/g. Also, the “UACR, median” value in data set [3] (setting [14]) is on record as 727 mg/g; in [3] (1.25 mg/day, Week 2) it was 515 mg/g; in [3] (1.25 mg/day, Week 6), 461 mg/g; in data set [3] (1.25 mg/day, Week 12) it was 470 mg/g. The “Weight, Mean (SD)” value in data set [3] (0.75 mg/day, Baseline) was 87.1 (22.1) kg; in data set [3] (setting [12]), 85 (23) kg; in data set [3] (0.75 mg/day, Week 2), 88.0 (22.2) kg; in [3] (0.75 mg/day, Week 6), 87.3 (21.8) kg; in data set [3] (0.75 mg/day, Week 12) it was 87.3 (22.3) kg; in data set [3] (1.25 mg/day, Baseline), 88.3 (18.4) kg. The “Weight, Mean (SD)” value in data set [3] (setting [14]) is given as 88 (19) kg; in [3] (1.25 mg/day, Week 2), 89.4 (18.7) kg; in data set [3] (1.25 mg/day, Week 6), 89.6 (19.0) kg; in [3] (1.25 mg/day, Week 12), 89.0 (19.2) kg. Also, the “Logistic regression odds ratio (95% CI), ≧1.3 g/dL hemoglobin fall” value in data set [3] (setting [13]) is 5.6 (2.5-12.7). The body weight increase result in [3] (after 2 weeks of treatment, placebo decreased approximately 1 kg) is “approximately 1 kg”. Moreover, the “hemoglobin (Hb) decrease” value in data set [3] (both atrasentan groups after 2 weeks, persisted throughout treatment) was “approximately 1 g/dl”. Moreover, in data set [3] (by 30 days after treatment discontinuation), the “Hb after treatment discontinuation” value was “normalized”. The “change in B-natriuretic peptide (BNP)” value in data set [3] (patients who received atrasentan) is reported as “no significant change”.
Consider `COc1cc(OC)nc(O[C@H](C(=O)O)C(OC)(c2ccccc2)c2ccccc2)n1` [darusentan], for which, in data set [4] (setting [15]), the “reduction in diastolic clinic seated blood pressure compared with placebo” value is recorded as roughly 5 mmHg and the “reduction in systolic clinic seated blood pressure compared with placebo” value is given as “about 10 mmHg”. Further, the “patients discontinuing because of fluid retention or peripheral edema” value in [4] (combined darusentan treatment groups) is reported as 2%. Moreover, the “patients with edema and/or fluid retention reported” value in [4] (darusentan groups combined, placebo 14%) is listed as 27%. For the same molecule, the “patients with cardiac-related serious adverse events” value in data set [4] (patients taking darusentan) is on record as “five”. Moreover, the “worsening of CHF” value in data set [5] is given as “tended to worsen CHF”.
On to `Cc1cc2c(cc1CC(=O)c1sccc1S(=O)(=O)Nc1onc(C)c1Cl)OCO2` [Sitaxsentan], for which the edema entry in [6] (higher doses) is reported as “significantly causes edema”; in [6] (lower doses (100 or 300 mg daily)), “less tendency to cause edema”.
In the case of `COc1ccccc1Oc1c(NS(=O)(=O)c2ccc(C)cn2)nc(-c2ccncc2)nc1OC` [avosentan], in data set [7] (25 mg), the “median decrease of UACR” value is 44%, the “discontinuation of trial medications due to adverse events” value was 19.69% and the deaths is 21. In addition, in data set [7] (50 mg), the “median decrease of UACR” value is 49%, the “discontinuation of trial medications due to adverse events” value is recorded as 18.2% and the deaths was 17.
With `COc1ccccc1Oc1c(NS(=O)(=O)c2ccc(C(C)(C)C)cc2)nc(-c2ncccn2)nc1OCCO` [Bosentan], the “worsening of congestive heart failure” value in data set [8] was “associated with early worsening of congestive heart failure (CHF)”.
As to `COC(c1ccccc1)(c1ccccc1)[C@H](Oc1nc(C)cc(C)n1)C(=O)O` [Ambrisentan], the edema incidence in data set [9] is 25%.
As to `COc1ccccc1Oc1c(NS(=O)(=O)c2ccc(C(C)C)cn2)nc(-c2ccnc(-c3nnn[nH]3)c2)nc1OCCO` [tezosentan], the urine output entry in data set [10] is on record as “reduced urine output”.
